What was measured:
Assay type in all cases: functional
Human alphaherpesvirus 2 [1] = test: Effective concentration required to inhibit replication of strain G of HSV-2 by 90%
Human alphaherpesvirus 1 [2] = test: Effective concentration required to inhibit replication of strain F of HSV-1 by 90%
Human alphaherpesvirus 2 [3] = test: Effective concentration required to inhibit replication of strain G of HSV-2 by 50%; conditions: read-out: ED50 (the source's name)
Human alphaherpesvirus 1 [4] = test: Effective concentration required to inhibit replication of strain F of HSV-1 by 50%; conditions: read-out: ED50 (the source's name)
Vero = test: Compound was evaluated for cytotoxicity in rapidly dividing Vero cells; conditions: Chlorocebus sabaeus, read-out: ID50 (the source's name)

| Structure (SMILES) | ED90 (Human alphaherpesvirus 2 [1]) | ED90 (Human alphaherpesvirus 1 [2]) | EC50 (Human alphaherpesvirus 2 [3]) | EC50 (Human alphaherpesvirus 1 [4]) | IC50 (Vero) |
| --- | --- | --- | --- | --- | --- |
| NCC1O[C@@H](n2cc(I)c(=O)[nH]c2=O)[C@H](F)[C@H]1O (stereo not given in full) | >200 µM | >200 µM | > 200 µM | 108 µM | > 200 µM |
| CC1O[C@@H](n2cc(I)c(N)nc2=O)[C@H](F)[C@H]1O (stereo not given in full) | >400 µM | >400 µM | > 400 µM | > 400 µM | > 400 µM |
| Nc1nc(=O)n([C@@H]2OC(CS)[C@H](O)[C@H]2F)cc1I (stereo not given in full) | >200 µM | 444 µM | > 200 µM | 216 µM | 337 µM |
| Cc1cn([C@@H]2OC(C)[C@H](O)[C@H]2F)c(=O)[nH]c1=O (stereo not given in full) | 493 µM | 298 µM | 173 µM | 31.1 µM | 214 µM |
| NCC1O[C@@H](n2cc(I)c(N)nc2=O)[C@H](F)[C@H]1O (stereo not given in full) | >400 µM | 480 µM | > 400 µM | 202 µM | > 400 µM |
| Cc1cn([C@@H]2OC(CS)[C@H](O)[C@H]2F)c(=O)[nH]c1=O (stereo not given in full) | >200 µM | >200 µM | > 200 µM | > 200 µM | 314 µM |
| CC1O[C@@H](n2cc(I)c(=O)[nH]c2=O)[C@H](F)[C@H]1O (stereo not given in full) | 290 µM | 384 µM | 135 µM | 220 µM | > 400 µM |
| CC1O[C@@H](n2ccc(=O)[nH]c2=O)[C@H](F)[C@H]1O (stereo not given in full) | 379 µM | 538 µM | 224 µM | 346 µM | 333 µM |
| Cc1cn([C@@H]2OC(CN)[C@H](O)[C@H]2F)c(=O)[nH]c1=O (stereo not given in full) | 14 µM | 3 µM | 5.6 µM | 0.78 µM | 6.7 µM |
| CC1O[C@@H](n2ccc(N)nc2=O)[C@H](F)[C@H]1O (stereo not given in full) | 45.5 µM | 35.9 µM | 17.1 µM | 13.3 µM | 225 µM |
| Cc1cn([C@@H]2O[C@H](CO)C(O)C2F)c(=O)[nH]c1=O (single isomer, unassigned) [5-METHYL-2'-FLUOROARAURACIL] | 0.09 µM | 0.047 µM | 0.023 µM | 0.018 µM | 2.8 µM |
| Nc1nc(=O)n([C@@H]2O[C@H](CO)C(O)C2F)cc1I (single isomer, unassigned) [FIACITABINE] | 0.08 µM | 0.048 µM | 0.03 µM | 0.023 µM | 21.7 µM |
| O=c1[nH]c(=O)n([C@@H]2O[C@H](CO)C(O)C2F)cc1I (single isomer, unassigned) [FIALURIDINE] | 0.045 µM | 0.041 µM | 0.01 µM | 0.012 µM | 10.3 µM |

From ChEMBL document CHEMBL1123587, “Nucleosides. 139. Synthesis and anticytomegalovirus and antiherpes simplex virus activity of 5'-modified analogues of 2'-fluoroarabinosylpyrimidine nucleosides” (1987)
